Measurements taken from the NIST ThermoML archive (doi:10.1021/je700205n).
Numbers after ± are expanded uncertainties.

Settings: Liquid

CCCCCCCn1cc[n+](C)c1.O=S(=O)([N-]S(=O)(=O)C(F)(F)F)C(F)(F)F
mass density [kg/m3]
Settings	293.15 K	303.15 K	313.15 K	323.15 K	333.15 K	343.15 K	353.15 K	393.15 K
100 kPa	1352 ± 3	1342 ± 3	1332 ± 3	1322 ± 3	1313 ± 3	1304 ± 3	1295 ± 3	1261 ± 3
1000 kPa	1353 ± 3	1343 ± 3	1333 ± 3	1323 ± 3	1314 ± 3	1304 ± 3	1296 ± 3	1262 ± 3
2000 kPa	1354 ± 3	1343 ± 3	1333 ± 3	1324 ± 3	1315 ± 3	1305 ± 3	1296 ± 3	1263 ± 3
3000 kPa	1354 ± 4	1344 ± 4	1334 ± 3	1325 ± 3	1316 ± 3	1306 ± 3	1297 ± 3	1264 ± 3
4000 kPa	1355 ± 4	1345 ± 4	1335 ± 4	1325 ± 3	1317 ± 3	1307 ± 3	1298 ± 3	1265 ± 3
5000 kPa	1356 ± 4	1346 ± 4	1336 ± 4	1326 ± 4	1317 ± 4	1308 ± 3	1299 ± 3	1266 ± 3
7500 kPa	1358 ± 4	1347 ± 4	1338 ± 4	1328 ± 4	1319 ± 4	1310 ± 4	1301 ± 4	1268 ± 3
10000 kPa	1359 ± 4	1349 ± 4	1339 ± 4	1330 ± 4	1321 ± 4	1312 ± 4	1303 ± 4	1271 ± 4
15000 kPa	1363 ± 5	1353 ± 5	1343 ± 4	1334 ± 4	1325 ± 4	1316 ± 4	1308 ± 4	1276 ± 4
20000 kPa	1366 ± 5	1357 ± 5	1347 ± 5	1338 ± 5	1329 ± 5	1320 ± 5	1312 ± 5	1281 ± 4
25000 kPa	1370 ± 6	1360 ± 6	1351 ± 6	1342 ± 5	1333 ± 5	1324 ± 5	1316 ± 5	1285 ± 5
30000 kPa	1373 ± 6	1364 ± 6	1355 ± 6	1345 ± 6	1337 ± 6	1328 ± 6	1320 ± 6	1290 ± 5

CCn1cc[n+](C)c1.F[B-](F)(F)F [1-ethyl-3-methylimidazolium tetrafluoroborate]
mass density [kg/m3]
Settings	293.15 K	303.15 K	313.15 K	323.15 K	333.15 K	343.15 K	353.15 K	393.15 K
100 kPa	1305 ± 3	1296 ± 2	1288 ± 2	1280 ± 2	1272 ± 2	1264 ± 2	1257 ± 2	1229 ± 2
1000 kPa	1305 ± 3	1296 ± 3	1288 ± 3	1280 ± 2	1272 ± 2	1265 ± 2	1257 ± 2	1230 ± 2
2000 kPa	1306 ± 3	1297 ± 3	1289 ± 3	1281 ± 3	1273 ± 3	1265 ± 3	1258 ± 2	1230 ± 2
3000 kPa	1306 ± 3	1297 ± 3	1289 ± 3	1281 ± 3	1273 ± 3	1266 ± 3	1258 ± 3	1231 ± 2
4000 kPa	1307 ± 3	1298 ± 3	1290 ± 3	1282 ± 3	1274 ± 3	1266 ± 3	1259 ± 3	1231 ± 3
5000 kPa	1307 ± 3	1298 ± 3	1290 ± 3	1282 ± 3	1274 ± 3	1267 ± 3	1259 ± 3	1232 ± 3
7500 kPa	1308 ± 3	1299 ± 3	1291 ± 3	1283 ± 3	1275 ± 3	1268 ± 3	1261 ± 3	1233 ± 3
10000 kPa	1309 ± 3	1300 ± 3	1292 ± 3	1284 ± 3	1277 ± 3	1269 ± 3	1262 ± 3	1235 ± 3
15000 kPa	1311 ± 3	1303 ± 3	1295 ± 3	1287 ± 3	1279 ± 3	1272 ± 3	1264 ± 3	1238 ± 3
20000 kPa	1313 ± 4	1305 ± 4	1297 ± 4	1289 ± 4	1281 ± 4	1274 ± 4	1267 ± 3	1240 ± 3
25000 kPa	1316 ± 4	1307 ± 4	1299 ± 4	1291 ± 4	1284 ± 4	1277 ± 4	1269 ± 4	1243 ± 4
30000 kPa	1318 ± 5	1309 ± 5	1301 ± 4	1294 ± 4	1286 ± 4	1279 ± 4	1272 ± 4	1246 ± 4

CCCCCCCCn1cc[n+](C)c1.O=S(=O)([N-]S(=O)(=O)C(F)(F)F)C(F)(F)F
mass density [kg/m3]
Settings	293.15 K	303.15 K	313.15 K	323.15 K	333.15 K	343.15 K	353.15 K	393.15 K
100 kPa	1328 ± 3	1315 ± 3	1305 ± 3	1296 ± 3	1286 ± 3	1278 ± 3	1269 ± 3	1236 ± 3
1000 kPa	1328 ± 3	1316 ± 3	1306 ± 3	1296 ± 3	1287 ± 3	1278 ± 3	1270 ± 3	1237 ± 3
2000 kPa	1329 ± 3	1317 ± 3	1307 ± 3	1297 ± 3	1288 ± 3	1279 ± 3	1270 ± 3	1238 ± 3
3000 kPa	1330 ± 3	1317 ± 3	1307 ± 3	1298 ± 3	1289 ± 3	1280 ± 3	1271 ± 3	1239 ± 3
4000 kPa	1330 ± 4	1318 ± 3	1308 ± 3	1299 ± 3	1289 ± 3	1281 ± 3	1272 ± 3	1240 ± 3
5000 kPa	1331 ± 4	1319 ± 4	1309 ± 3	1299 ± 3	1290 ± 3	1282 ± 3	1273 ± 3	1241 ± 3
7500 kPa	1333 ± 4	1321 ± 4	1311 ± 4	1301 ± 4	1292 ± 4	1284 ± 4	1275 ± 3	1243 ± 3
10000 kPa	1334 ± 4	1322 ± 4	1312 ± 4	1303 ± 4	1294 ± 4	1286 ± 4	1277 ± 4	1246 ± 3
15000 kPa	1338 ± 4	1326 ± 4	1316 ± 4	1307 ± 4	1298 ± 4	1290 ± 4	1282 ± 4	1251 ± 4
20000 kPa	1341 ± 5	1329 ± 5	1320 ± 5	1311 ± 5	1302 ± 5	1294 ± 4	1286 ± 4	1256 ± 4
25000 kPa	1345 ± 5	1333 ± 5	1324 ± 5	1315 ± 5	1306 ± 5	1298 ± 5	1290 ± 5	1261 ± 4
30000 kPa	1348 ± 6	1337 ± 6	1327 ± 6	1319 ± 6	1310 ± 6	1303 ± 5	1294 ± 5	1266 ± 5

CCn1cc[n+](C)c1.O=S(=O)([N-]S(=O)(=O)C(F)(F)F)C(F)(F)F
mass density [kg/m3]
Settings	293.15 K	303.15 K	313.15 K	323.15 K	333.15 K	343.15 K	353.15 K	393.15 K
100 kPa	1526 ± 4	1514 ± 4	1503 ± 4	1493 ± 4	1482 ± 4	1472 ± 4	1461 ± 4	1424 ± 4
1000 kPa	1526 ± 4	1515 ± 4	1504 ± 4	1493 ± 4	1483 ± 4	1472 ± 4	1462 ± 4	1424 ± 4
2000 kPa	1527 ± 4	1516 ± 4	1505 ± 4	1494 ± 4	1483 ± 4	1473 ± 4	1463 ± 4	1425 ± 4
3000 kPa	1528 ± 4	1517 ± 4	1506 ± 4	1495 ± 4	1484 ± 4	1474 ± 4	1464 ± 4	1426 ± 4
4000 kPa	1528 ± 5	1517 ± 4	1506 ± 4	1496 ± 4	1485 ± 4	1475 ± 4	1465 ± 4	1427 ± 4
5000 kPa	1529 ± 5	1518 ± 5	1507 ± 5	1496 ± 4	1486 ± 4	1476 ± 4	1466 ± 4	1428 ± 4
7500 kPa	1531 ± 5	1520 ± 5	1509 ± 5	1498 ± 5	1488 ± 5	1478 ± 5	1468 ± 5	1431 ± 4
10000 kPa	1533 ± 5	1522 ± 5	1511 ± 5	1500 ± 5	1490 ± 5	1480 ± 5	1470 ± 5	1433 ± 5
15000 kPa	1536 ± 6	1525 ± 6	1515 ± 6	1504 ± 6	1494 ± 6	1484 ± 6	1474 ± 6	1438 ± 5
20000 kPa	1540 ± 7	1529 ± 7	1518 ± 7	1508 ± 7	1498 ± 7	1488 ± 7	1478 ± 6	1443 ± 6
25000 kPa	1543 ± 8	1532 ± 8	1522 ± 8	1512 ± 8	1502 ± 8	1492 ± 7	1483 ± 7	1448 ± 7
30000 kPa	1547 ± 9	1536 ± 9	1526 ± 9	1516 ± 9	1506 ± 8	1496 ± 8	1487 ± 8	1453 ± 8
